In patent publication US9833497B2, “Human originated EGF domain proteins and use of the same” (CHENGDU SOURCEBIO LIMITED-LIABILITY COMPANY, priority 2013, dated 2017):

Legend:
Assay type in all cases: cell-based
[1] = test system: Enterobacter cloacae; assay: MIC against Gram-negative bacteria: Enterobacter cloacae; details: 5×10^5 CFU/mL
How it was run: (§1)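 Purified recombinant human EGF domain proteins are tested by broth dilution in LB against a 5×10^5 CFU/mL inoculum, with two-fold serial dilutions run in triplicate. Plates are incubated at 37° C with shaking, and the MIC is read as the lowest protein concentration without growth.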

[2] = test system: Citrobacter diversus; assay: MIC against Gram-negative bacteria: Citrobacter diversus; details: 5×10^5 CFU/mL
How it was run: as §1

[3] = test system: Serratia marcescens; assay: MIC against Gram-negative bacteria: Serratia marcescens; details: 5×10^5 CFU/mL
How it was run: as §1

[4] = test system: Aeromonas hydrophila; assay: MIC against Gram-negative bacteria: Aeromonas hydrophila; details: 5×10^5 CFU/mL
How it was run: as §1

[5] = test system: Moraxella catarrhalis; assay: MIC against Gram-negative bacteria: Moraxella catarrhalis; details: 5×10^5 CFU/mL
How it was run: as §1

[6] = test system: Klebsiella pneumonia; assay: MIC against Gram-negative bacteria: Klebsiella pneumonia; details: 5×10^5 CFU/mL
How it was run: as §1

[7] = test system: Pseudomonas aeruginosa; assay: MIC against Gram-negative bacteria: Pseudomonas aeruginosa; details: 5×10^5 CFU/mL
How it was run: as §1

[8] = test system: Proteus mirabilis; assay: MIC against Gram-negative bacteria: Proteus mirabilis; details: 5×10^5 CFU/mL
How it was run: as §1

[9] = test system: E. coli DH5α; assay: Antibacterial activity: MIC and growth curve against E. coli DH5α in 96-well plate; details: minimal inhibitory concentration against E. coli DH5α; 96-well plate, 5×10^5 CFU/mL, 37° C., judged after 8 h
How it was run: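 Log-phase DH5α (OD600 about 0.5, 37° C, 185 rpm in LB) was pelleted, resuspended in fresh LB and seeded at 5×10^5 CFU/mL with recombinant protein at 50, 25 and 12.5 μg/mL (two-fold series), in triplicate. Plates were shaken at 175 rpm, 37° C, and OD600 was read every 30 min. MIC was the lowest concentration with no growth.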

[10] = test system: E. coli BL21; assay: MIC against Gram-negative bacteria: E. coli BL21; details: 5×10^5 CFU/mL
How it was run: as §1

[11] = test system: Proteus vulgaris; assay: MIC against Gram-negative bacteria: Proteus vulgaris; details: 5×10^5 CFU/mL
How it was run: as §1

[12] = 10 h cultivation at 37° C., two-fold serial dilution

For “PRT655 (DVDECATTDPCVGGHCVNTEGSFNCLCETGFQPSPESGECV; listed as Homo sapiens)”, the “MIC E. cloacae” value ([1]; 96-well plate, 37° C., 10 h) was 50 µg/mL, the “MIC C. diversus” value ([2]; 96-well plate, 37° C., 10 h) was 12.5 µg/mL and the “MIC S. marcescens” value ([3]; 96-well plate, 37° C., 10 h) was 25 µg/mL. The “MIC A. hydrophila” value ([4]; 96-well plate, 37° C., 10 h) was 25 µg/mL, the “MIC M. catarrhalis” value ([5]; 96-well plate, 37° C., 10 h) was 50 µg/mL and the “MIC K. pneumonia” value ([6]; 96-well plate, 37° C., 10 h) was 25 µg/mL. The “MIC P. aeruginosa” value ([7]; 96-well plate, 37° C., 10 h) was 12.5 µg/mL, the “MIC P. mirabilis” value ([8]; 96-well plate, 37° C., 10 h) was 25 µg/mL and the MIC [9] was 25 µg/mL. The “MIC E. coli BL21” value ([10]; 96-well plate, 37° C., 10 h) was 50 µg/mL and the “MIC P. vulgaris” value ([11]; 96-well plate, 37° C., 10 h) was 12.5 µg/mL.

In the case of “PRT508 (CECSHLGNNCDPKTGRCICPPNTIGEKCSKCAPNTWGHSITTGCKA; listed as Homo sapiens)”, the “MIC against E. cloacae” value ([1]; 96-well plate, 37° C., 10 h) is reported as 12.5 µg/mL, the “MIC against C. diversus” value ([2]; 96-well plate, 37° C., 10 h) is reported as 100 µg/mL and the “MIC against S. marcescens” value ([3]; 96-well plate, 37° C., 10 h) is reported as 25 µg/mL. The “MIC against A. hydrophila” value ([4]; 96-well plate, 37° C., 10 h) was 50 µg/mL, the “MIC against M. catarrhalis” value ([5]; 96-well plate, 37° C., 10 h) was 50 µg/mL and the “MIC against K. pneumonia” value ([6]; 96-well plate, 37° C., 10 h) was 25 µg/mL. For the same substance, the “MIC against P. aeruginosa” value ([7]; 96-well plate, 37° C., 10 h) was 50 µg/mL, the “MIC against P. mirabilis” value ([8]; 96-well plate, 37° C., 10 h) was 12.5 µg/mL and the MIC [9] was 12.5 µg/mL. For the same substance, the “MIC against E. coli BL21” value ([10]; 96-well plate, 37° C., 10 h) was 25 µg/mL and the “MIC against P. vulgaris” value ([11]; 96-well plate, 37° C., 10 h) was 12.5 µg/mL.

For “PRT1224 (PPGDCASHPCQNGGSCEPGLHSGFTCSCPDSHTGRTCE; listed as Homo sapiens)”, the “MIC against E. cloacae” value ([1]; Enterobacter cloacae, 96-well plate, 37° C., 10 h) was 25 µg/mL, the “MIC against C. diversus” value ([2]; Citrobacter diversus, 96-well plate, 37° C., 10 h) was 12.5 µg/mL and the “MIC against S. marcescens” value ([3]; Serratia marcescens, 96-well plate, 37° C., 10 h) was 50 µg/mL. The “MIC against A. hydrophila” value ([4]; Aeromonas hydrophila, 96-well plate, 37° C., 10 h) was 50 µg/mL, the “MIC against M. catarrhalis” value ([5]; Moraxella catarrhalis, 96-well plate, 37° C., 10 h) was 25 µg/mL and the “MIC against K. pneumonia” value ([6]; Klebsiella pneumonia, 96-well plate, 37° C., 10 h) was 12.5 µg/mL. The “MIC against P. aeruginosa” value ([7]; Pseudomonas aeruginosa, 96-well plate, 37° C., 10 h) was 25 µg/mL, the “MIC against P. mirabilis” value ([8]; Proteus mirabilis, 96-well plate, 37° C., 10 h) was 50 µg/mL and the MIC [9] was 25 µg/mL. The “MIC against E. coli BL21” value ([10]; E. coli BL21, 96-well plate, 37° C., 10 h) was 50 µg/mL and the “MIC against P. vulgaris” value ([11]; Proteus vulgaris, 96-well plate, 37° C., 10 h) was 12.5 µg/mL.

“PRT715 (DIDECSSGFPCSQQCINTYGTYKCLCTDGYEIQPDNPNGCK; listed as Homo sapiens)” was tested, and the “MIC E. cloacae” value ([1]; 96-well plate, 37° C., 10 h) was 50 µg/mL, the “MIC C. diversus” value ([2]; 96-well plate, 37° C., 10 h) was 50 µg/mL and the “MIC S. marcescens” value ([3]; 96-well plate, 37° C., 10 h) was 12.5 µg/mL. The “MIC A. hydrophila” value ([4]; 96-well plate, 37° C., 10 h) was 12.5 µg/mL, the “MIC M. catarrhalis” value ([5]; 96-well plate, 37° C., 10 h) was 12.5 µg/mL and the “MIC K. pneumonia” value ([6]; 96-well plate, 37° C., 10 h) was 12.5 µg/mL. The “MIC P. aeruginosa” value ([7]; 96-well plate, 37° C., 10 h) was 25 µg/mL, the “MIC P. mirabilis” value ([8]; 96-well plate, 37° C., 10 h) was 25 µg/mL and the MIC [9] was 50 µg/mL. The “MIC E. coli BL21” value ([10]; 96-well plate, 37° C., 10 h) was 50 µg/mL and the “MIC P. vulgaris” value ([11]; 96-well plate, 37° C., 10 h) was 50 µg/mL.

For “PRT1055 (GADPCLYQNGGCEHICKKRLGTAWCSCREGFMKASDGKTCL; listed as Homo sapiens)”, the “MIC E. cloacae” value [1, 12] was 12.5 µg/mL, the “MIC C. diversus” value [2, 12] was 25 µg/mL and the “MIC S. marcescens” value [3, 12] was 12.5 µg/mL. For the same substance, the “MIC A. hydrophila” value [4, 12] was 50 µg/mL, the “MIC M. catarrhalis” value [5, 12] was 12.5 µg/mL and the “MIC K. pneumonia” value [6, 12] was 50 µg/mL. The “MIC P. aeruginosa” value [7, 12] was 12.5 µg/mL, the “MIC P. mirabilis” value [8, 12] was 25 µg/mL and the MIC [9] was 12.5 µg/mL. The “MIC E. coli BL21” value [10, 12] was 50 µg/mL and the “MIC P. vulgaris” value [11, 12] was 50 µg/mL.
